Our source for the Activity and MIC values is ChEMBL document CHEMBL3045514, “An efficient one-pot cyclization of quinoline thiosemicarbazones to quinolines derivatized with 1,3,4-thiadiazole as anticancer and anti-tubercular agents” (Med Chem Res, 2012).

Data set [1] is filed under the species Mus musculus. The data set is described as follows: Toxicity in Mus musculus (mouse) assessed as irritation. It counts as organism-based. As to conditions: in vivo.
The subject of data set [2] is Mycobacterium tuberculosis. As to the kind of experiment: Antitubercular activity against Mycobacterium tuberculosis H37Rv at 5 ug/ml measured twice a week for 3 weeks by Ziehl-Neelsen staining. It counts as functional, organism-based.
Data set [3] has as its system Mycobacterium tuberculosis. As to the kind of experiment: Antitubercular activity against Mycobacterium tuberculosis H37Rv at 10 ug/ml measured twice a week for 3 weeks by Ziehl-Neelsen staining. The data set is classed as functional, organism-based.
The subject of data set [4] is HeLa. The data set is described as follows: Cytotoxicity against Homo sapiens (human) HeLa cells assessed as cell mortality after 24 to 72 hr by inverted microscopic analysis. It counts as functional.
The test system of data set [5] is Mycobacterium tuberculosis. As to the kind of experiment: Antitubercular activity against Mycobacterium tuberculosis H37Rv at 25 ug/ml measured twice a week for 3 weeks by Ziehl-Neelsen staining. It counts as functional, organism-based.
The test system of data set [6] is Mycobacterium tuberculosis. The data set is described as follows: Antitubercular activity against Mycobacterium tuberculosis H37Rv measured twice a week for 3 weeks by Ziehl-Neelsen staining. The data set is classed as functional. As to conditions: 504 h.

For orientation: MIC means the lowest concentration found to suppress growth.

In brackets after ≈: the same amount, converted by molar mass. Activity calls are given as the source filed them. The calls are words filed in the database; no cut-off is given here.

`CC(=O)NC1=NN(C(C)=O)C(c2cc3ccccc3nc2Cl)S1` (stereo not drawn): the Activity entry in data set [1] was “Non-toxic”; in data set [4], 15 µg/mL. For the same compound, the outcome in data set [2] was inactive. Besides, the result in data set [3] and in data set [5] was Active.
`CC(=O)NC1=NN(C(C)=O)C(c2cc3ccc(C)cc3nc2Cl)S1` (stereo not drawn): the Activity entry is “Non-toxic” in data set [1] and 20 µg/mL in data set [4]. For the same compound, the result in data set [2] was inactive. Also, the result in data set [3] and in data set [5] was Active.
`CC(=O)NC1=NN(C(C)=O)C(c2cc3ccc(Cl)cc3nc2Cl)S1` (stereo not drawn): the Activity result in data set [1] was “Non-toxic”; in data set [4], 20 µg/mL. Moreover, the result in data set [2] was inactive. The outcome in data set [3] and in data set [5] was Active.
On to `COc1ccc2nc(Cl)c(C3SC(NC(C)=O)=NN3C(C)=O)cc2c1` (stereo not drawn), for which the Activity result in data set [1] was “Non-toxic”; in data set [4], 10 µg/mL. Also, in data set [2], the result was inactive. Moreover, the result in data set [3] and in data set [5] was Active.
As for `COc1cccc2cc(C3SC(NC(C)=O)=NN3C(C)=O)c(Cl)nc12` (stereo not drawn), the Activity entry in data set [1] was “Non-toxic”; in data set [4], 15 µg/mL. Besides, the outcome in data set [2] was inactive. In addition, the result in data set [3] and in data set [5] was Active. This compound came in with an MIC in data set [6] of 5 µg/mL (≈ 13.2 µM).
`COc1cc2cc(C3SC(NC(C)=O)=NN3C(C)=O)c(Cl)nc2cc1OC` (stereo not drawn): the Activity entry in data set [1] is “Non-toxic”; in data set [4] it was 10 µg/mL. For the same compound, in data set [2], the result was inactive. For the same compound, the outcome in data set [3] and in data set [5] was Active.
`CC(=O)NC1=NN(C(C)=O)C(c2cc3cc(C)ccc3nc2Cl)S1` (stereo not drawn): the figures for the Activity result in data set [1] and in data set [4] were “Non-toxic” and 10 µg/mL, respectively. Also, the result in data set [2] was inactive. Further, the result in data set [3] and in data set [5] was Active.
Consider `CN[C@@H]1[C@H](O[C@H]2[C@H](O[C@H]3[C@H](O)[C@@H](O)[C@H](N=C(N)N)[C@@H](O)[C@@H]3N=C(N)N)O[C@@H](C)[C@]2(O)C=O)O[C@@H](CO)[C@H](O)[C@H]1O` [STREPTOMYCIN], for which the MIC in data set [6] worked out at 10 µg/mL (≈ 17.2 µM).
For `CC(=O)NC1=NN(C(C)=O)C(c2cc3cc(Br)ccc3nc2Cl)S1` (stereo not drawn), the Activity result is “Non-toxic” in data set [1] and 20 µg/mL in data set [4]. Also, in data set [2], the outcome was inactive. For the same compound, the outcome in data set [3] and in data set [5] was Active.
`COc1ccc2cc(C3SC(NC(C)=O)=NN3C(C)=O)c(Cl)nc2c1` (stereo not drawn): the Activity entry in data set [1] was “Non-toxic”; in data set [4], 15 µg/mL. Also, the result in data set [2] was inactive. Besides, the outcome in data set [3] and in data set [5] was Active.
For `CC(=O)NC1=NN(C(C)=O)C(c2cc3cccc(C)c3nc2Cl)S1` (stereo not drawn), the Activity result in data set [1] was “Non-toxic”; in data set [4], 25 µg/mL. In addition, the outcome in data set [2] was inactive. In addition, the result in data set [3] and in data set [5] was Active. This compound also registered an MIC in data set [6] of 5 µg/mL (≈ 13.8 µM).
